# Numbers after ± are expanded uncertainties.
# Legend:
# [1] = 298.15 K; for surface tension liquid-gas: Maximal bubble pressure; for mass density: 101.33 kPa, Liquid, Vibrating tube method
# [2] = refractive index (Na D-line) (dimensionless); settings: 298.15 K; 101.33 kPa; Liquid; refractometer model RFM 81
# [3] = 101.3 kPa, Liquid mixture 1, spinning drop method
Compound,surface tension liquid-gas [1] [mN/m],mass density [1] [kg/m3],refractive index [2],interfacial tension ([3]; 278.15 K) [mN/m],interfacial tension ([3]; 288.15 K) [mN/m],interfacial tension ([3]; 298.15 K) [mN/m],interfacial tension ([3]; 308.15 K) [mN/m],interfacial tension ([3]; 318.15 K) [mN/m],interfacial tension ([3]; 328.15 K) [mN/m],interfacial tension ([3]; 338.15 K) [mN/m],interfacial tension ([3]; 348.15 K) [mN/m],interfacial tension ([3]; 358.15 K) [mN/m]
CCCC(=O)OC [methyl butanoate],24.56 ± 0.25,892.62 ± 0.72,1.38486 ± 0.0008,–,–,–,–,–,–,–,–,–
CCCC(=O)OC [methyl butanoate] + O,–,–,–,10.6 ± 0.03,10.9 ± 0.03,11.1 ± 0.03,11.1 ± 0.03,11 ± 0.03,10.6 ± 0.03,10.05 ± 0.03,9.4 ± 0.03,–
COC(C)=O [methyl ethanoate],24.93 ± 0.25,926.9 ± 0.72,1.36008 ± 0.0008,–,–,–,–,–,–,–,–,–
COC(C)=O [methyl ethanoate] + O,–,–,–,1.86 ± 0.03,1.77 ± 0.03,1.66 ± 0.03,1.49 ± 0.03,1.17 ± 0.03,0.75 ± 0.03,–,–,–
CCCCCCC(=O)OC [methyl heptanoate],26.73 ± 0.26,875.61 ± 0.72,1.41086 ± 0.0008,–,–,–,–,–,–,–,–,–
CCCCCCC(=O)OC [methyl heptanoate] + O,–,–,–,–,16 ± 0.03,16.7 ± 0.03,17.3 ± 0.04,17.5 ± 0.04,17.6 ± 0.04,17.5 ± 0.04,16.9 ± 0.03,15.9 ± 0.03
CCCCCC(=O)OC [methyl hexanoate],26.01 ± 0.26,879.76 ± 0.72,1.40443 ± 0.0008,–,–,–,–,–,–,–,–,–
CCCCCC(=O)OC [methyl hexanoate] + O,–,–,–,14.6 ± 0.03,15 ± 0.03,15.5 ± 0.03,15.7 ± 0.03,15.8 ± 0.03,15.7 ± 0.03,15.5 ± 0.03,15.1 ± 0.03,14.6 ± 0.03
COC=O [methyl methanoate],24.96 ± 0.25,960.85 ± 0.3,1.34174 ± 0.0008,–,–,–,–,–,–,–,–,–
COC=O [methyl methanoate] + O,–,–,–,0.56 ± 0.03,0.77 ± 0.03,–,–,–,–,–,–,–
CCCCC(=O)OC [methyl pentanoate],25.34 ± 0.25,885.66 ± 0.72,1.39628 ± 0.0008,–,–,–,–,–,–,–,–,–
CCCCC(=O)OC [methyl pentanoate] + O,–,–,–,13.6 ± 0.03,14 ± 0.03,14.1 ± 0.03,14 ± 0.03,13.9 ± 0.03,13.7 ± 0.03,13.5 ± 0.03,13.2 ± 0.03,12.9 ± 0.03
CCC(=O)OC [methyl propanoate],24.61 ± 0.25,909.3 ± 0.72,1.37572 ± 0.0008,–,–,–,–,–,–,–,–,–
CCC(=O)OC [methyl propanoate] + O,–,–,–,7.02 ± 0.03,7.55 ± 0.03,7.69 ± 0.03,7.56 ± 0.03,7.34 ± 0.03,6.63 ± 0.03,5.06 ± 0.03,–,–

# Reference: the NIST ThermoML archive (doi:10.1016/j.jct.2018.02.010)
